According to PubChem BioAssay (NCI):
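1) Cells in 96-well plates. 2) Compound, 48 h, 5 concentrations. 3) Linear interpolation between surrounding doses. 4) Unreached endpoint = highest concentration. The concentration for full growth arrest is given as TGI.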

How the values were obtained:
Experiment in all cases: growth of human tumour cells (NCI), 48 h
SK-MEL-2 melanoma = test system: SK-MEL-2 melanoma
TK-10 renal = test system: TK-10 renal
A549 NSCLC = test system: A549 NSCLC
ACHN renal = test system: ACHN renal
NCI-H23 lung = test system: NCI-H23 lung
NCI-H460 lung = test system: NCI-H460 lung
T-47D breast = test system: T-47D breast
RXF 393 renal = test system: RXF 393 renal
MDA-MB-231 breast = test system: MDA-MB-231 breast
SR leukemia = test system: SR leukemia
SF-295 CNS = test system: SF-295 CNS
SK-MEL-28 melanoma = test system: SK-MEL-28 melanoma
COLO 205 colon = test system: COLO 205 colon
OVCAR-8 ovarian = test system: OVCAR-8 ovarian
HS 578T breast = test system: HS 578T breast
UACC-62 melanoma = test system: UACC-62 melanoma
CCRF-CEM leukemia = test system: CCRF-CEM leukemia
LOX IMVI melanoma = test system: LOX IMVI melanoma
DU-145 prostate = test system: DU-145 prostate
KM12 colon = test system: KM12 colon
MCF7 breast = test system: MCF7 breast
SK-MEL-5 melanoma = test system: SK-MEL-5 melanoma
U251 CNS = test system: U251 CNS
OVCAR-3 ovarian = test system: OVCAR-3 ovarian
UO-31 renal = test system: UO-31 renal
SNB-19 CNS = test system: SNB-19 CNS
HL-60(TB) leukemia = test system: HL-60(TB) leukemia
CAKI-1 renal = test system: CAKI-1 renal
SK-OV-3 ovarian = test system: SK-OV-3 ovarian
HT29 colon = test system: HT29 colon
SF-539 CNS = test system: SF-539 CNS
UACC-257 melanoma = test system: UACC-257 melanoma
IGROV1 ovarian = test system: IGROV1 ovarian
HCC-2998 colon = test system: HCC-2998 colon
MOLT-4 leukemia = test system: MOLT-4 leukemia
MDA-N = test system: MDA-N
HOP-62 NSCLC = test system: HOP-62 NSCLC
MDA-MB-435 = test system: MDA-MB-435
SW-620 colon = test system: SW-620 colon
HCT-15 colon = test system: HCT-15 colon
NCI/ADR-RES ovarian = test system: NCI/ADR-RES ovarian
EKVX NSCLC = test system: EKVX NSCLC
NCI-H226 lung = test system: NCI-H226 lung
SN12C renal = test system: SN12C renal
MALME-3M melanoma = test system: MALME-3M melanoma
NCI-H522 lung = test system: NCI-H522 lung
A498 renal = test system: A498 renal
M14 melanoma = test system: M14 melanoma
OVCAR-5 ovarian = test system: OVCAR-5 ovarian
SNB-75 CNS = test system: SNB-75 CNS
K-562 leukemia = test system: K-562 leukemia
SF-268 CNS = test system: SF-268 CNS
HOP-92 NSCLC = test system: HOP-92 NSCLC
PC-3 prostate = test system: PC-3 prostate
HCT-116 colon = test system: HCT-116 colon
RPMI-8226 leukemia = test system: RPMI-8226 leukemia
BT-549 breast = test system: BT-549 breast
786-0 renal = test system: 786-0 renal

`COC(=O)NC(Nc1ccc(Cl)cc1Cl)(C(F)(F)F)C(F)(F)F` showed a TGI (SK-MEL-2 melanoma) greater than 100 µM, a TGI (TK-10 renal) greater than 100 µM and a TGI (A549 NSCLC) greater than 100 µM. The TGI (ACHN renal) was greater than 100 µM, the TGI (NCI-H23 lung) was greater than 100 µM and the TGI (NCI-H460 lung) was greater than 100 µM. It also gave a TGI (T-47D breast) greater than 100 µM, a TGI (RXF 393 renal) greater than 100 µM and a TGI (MDA-MB-231 breast) greater than 100 µM. It also gave a TGI (SR leukemia) greater than 100 µM, a TGI (SF-295 CNS) greater than 100 µM and a TGI (SK-MEL-28 melanoma) greater than 100 µM. For the same molecule, the TGI (COLO 205 colon) was greater than 100 µM, the TGI (OVCAR-8 ovarian) was greater than 100 µM and the TGI (HS 578T breast) was greater than 100 µM. For the same molecule, the TGI (UACC-62 melanoma) was greater than 100 µM, the TGI (CCRF-CEM leukemia) was greater than 100 µM and the TGI (LOX IMVI melanoma) was greater than 100 µM. For the same molecule, the TGI (DU-145 prostate) was greater than 100 µM, the TGI (KM12 colon) was greater than 100 µM and the TGI (MCF7 breast) was greater than 100 µM. It also gave a TGI (SK-MEL-5 melanoma) greater than 100 µM, a TGI (U251 CNS) greater than 100 µM and a TGI (OVCAR-3 ovarian) greater than 100 µM. It also gave a TGI (UO-31 renal) of 94.7 µM, a TGI (SNB-19 CNS) greater than 100 µM and a TGI (HL-60(TB) leukemia) greater than 100 µM. It also gave a TGI (CAKI-1 renal) greater than 100 µM, a TGI (SK-OV-3 ovarian) greater than 100 µM and a TGI (HT29 colon) greater than 100 µM. It also gave a TGI (SF-539 CNS) greater than 100 µM, a TGI (UACC-257 melanoma) greater than 100 µM and a TGI (IGROV1 ovarian) greater than 100 µM. It also gave a TGI (HCC-2998 colon) greater than 100 µM, a TGI (MOLT-4 leukemia) greater than 100 µM and a TGI (MDA-N) greater than 100 µM. The TGI (HOP-62 NSCLC) was greater than 100 µM, the TGI (MDA-MB-435) was greater than 100 µM and the TGI (SW-620 colon) was greater than 100 µM. It also gave a TGI (HCT-15 colon) greater than 100 µM, a TGI (NCI/ADR-RES ovarian) greater than 100 µM and a TGI (EKVX NSCLC) greater than 100 µM. The TGI (NCI-H226 lung) was greater than 100 µM, the TGI (SN12C renal) was greater than 100 µM and the TGI (MALME-3M melanoma) was greater than 100 µM. It also gave a TGI (NCI-H522 lung) greater than 100 µM, a TGI (A498 renal) greater than 100 µM and a TGI (M14 melanoma) greater than 100 µM. It also gave a TGI (OVCAR-5 ovarian) greater than 100 µM, a TGI (SNB-75 CNS) greater than 100 µM and a TGI (K-562 leukemia) greater than 100 µM. The TGI (SF-268 CNS) was greater than 100 µM, the TGI (HOP-92 NSCLC) was greater than 100 µM and the TGI (PC-3 prostate) was greater than 100 µM. For the same molecule, the TGI (HCT-116 colon) was greater than 100 µM, the TGI (RPMI-8226 leukemia) was greater than 100 µM and the TGI (BT-549 breast) was greater than 100 µM. For the same molecule, the TGI (786-0 renal) was greater than 100 µM.
